Measured values taken from article PMC9268414, “Screening an In-House Isoquinoline Alkaloids Library for New Blockers of Voltage-Gated Na^+ Channels Using Voltage Sensor Fluorescent Probes: Hits and Biases” (Molecules, 2022).
Where two headings read alike, the source gives them in different places.

Tests used:
[1] = tested on: NaV channels endogenously expressed in GH3b6 cells; test: FRET voltage sensor probe (VSP) assay of BTX-induced depolarization in GH3b6 cells; type: cell-based, rat; settings: GH3b6 cells; for Maximum of Inhibition of BTX-evoked VSP signal / IC50: BTX 1 µM, n = 6; for Maximum of Inhibition of BTX-evoked VSP signal: % printed only; for IC50: read-out: IC50 (µM), inhibition of BTX-evoked VSP signal; for Inhibitory Effects (%) on BTX-induced VSP signal (screening): IA at 10–50 µg/mL co-incubated with 1 µM BTX
hNaV1.3 channel = molecular target: T1, hNaV1.3 channel (Homo sapiens, UniProt Q9NY46); test: Automated patch-clamp, Na+ currents in HEK293-hNaV1.3 cells; type: cell-based; settings: for Effect on slow-down of inactivation induced by BTX (AUC): 10 µM IA; for Effect on slow-down of inactivation induced by BTX (AUC) / Change in V1/2 of activation and inactivation vs control: hNaV1.3; for Effect on Na+ currents elicited by hNaV1.3 / Change in V1/2 of activation and inactivation vs control: 10 µM; for Effect on Na+ currents elicited by hNaV1.3: HEK293-hNaV1.3, without BTX
T1 construct: expressed in transfected cells
Protocol: (§1) GH3b6 cells are a subclone of the GH3 pituitary cell line and were a generous gift from Dr. Françoise Macari (IGF, Montpellier, France). GH3b6 cells were cultivated from passage 14 until passage 32 at 37 °C/5% CO2 in Dubelcco’s Modified Eagle Medium (DMEM)/F12 (Lonza, Basel, Switzerland), supplemented with 10% FBS (Lonza, Basel, Switzerland), 1 mM L-glutamine, and 1 mM penicillin and streptomycin solution. For the fluorescence assay, the GH3b6 cells were seeded in black-walled, clear-bottom, 96-well, tissue culture-treated, and sterile imaging plates (Corning Hazebrouck, France), at a density of 10,000 cells per well, and incubated for 24 h before starting the experiment. The human Nav1.3 (hNav1.3) channel-expressing cell line (HEK293) used in this work was a generous gift from Massimo Mantegazza (IPMC, Nice, France). HEK293-hNaV1.3 cells were cultivated from passage 20 until passage 35 at 37 °C/5% CO2 in a DMEM high glucose medium (4.5 g/l), supplemented with 10% FBS, pyruvate, L-glutamine, and penicillin and streptomycin solution, each one at 1 mM, completed with 800 µg/mL geneticin G418. For the fluorescence assays, the cells were plated at a density of 50,000 cells per well in black-walled, clear-bottom, 96-well plates and then cultured at 37 °C and 5% CO2 for 24 h before the experiments. HEK293 stably expressing hNaV1.2 and hNaV1.6 were cultivated in the same conditions mentioned above for the HEK293-hNaV1.3 cells. For the automated patch-clamp experiments, cells were passaged from 24 to 48 h prior to the experiment and replated in the appropriate quantity to reach 50–70% confluence. For electrophysiological recordings, cells were detached with trypsin-EDTA and diluted in a culture medium. Then, the cells were centrifuged at 800 rpm for 4 min and resuspended (~300,000 cells/mL) in a patch-clamp extracellular solution.
(§2) Whole-cell recordings were used to investigate the effects of oxostephanine, liriodenine, thalmiculine, bebeerine, and protopine on HEK293 cells stably expressing the hNav1.2, hNav1.3, and hNav1.6 channels. Automated patch-clamp recordings were performed using the SyncroPatch 384PE from Nanion (München, Germany). Chips with a single hole (n = 384, series resistance 3.93 ± 1.19 MΩ) were used for HEK293 cell recordings. Pulse generation and data collection were performed with the PatchControl384 v1.9.7 software (Nanion) and the Biomek interface (Beckman Coulter). Whole-cell recordings were conducted according to the recommended procedures of Nanion. The cells were stored in a cell hotel reservoir at 10 °C, with a shaking speed of 60 RPM. After initiating the experiment, cell catch, sealing, whole-cell formation, liquid application, recording, and data acquisition were all performed sequentially and automatically. The intracellular solution contained (in mM): 10 CsCl, 110 CsF, 10 NaCl, 10 EGTA, and 10 HEPES (pH 7.2, osmolarity 280 mOsm), and the extracellular solution contained (in mM): 60 NMDG, 80 NaCl, 4 KCl, 2 CaCl2, 1 MgCl2, 5 Glucose, and 10 HEPES (pH 7.4 (NaOH), osmolarity 280 ± 3 mOsm). Whole-cell experiments were performed at a holding potential of −100 mV at room temperature (18–22 °C). Currents were sampled at 20 kHz. For pharmacological assays, alkaloid solutions were prepared at 30 µM in the extracellular solution supplemented with 0.3% bovine serum albumin and distributed in 384-well compound plates according to a pre-established plate plan. This distribution within compound plates could not be randomized since it would then excessively complexify the methods of analyses. The working compound solution was diluted 3 times in the patch-clamp recording well by adding from 30 to 60 µL of the external solution to reach the final reported concentration and the test volume of 90 µL. The effects of IA (10 µM) or of BTX (1 µM) were measured at the end of a 10 min application time. Activation curves were built by depolarizations lasting for 2000 ms, from −130 mV to 40 mV, using 5 mV increment steps. […]

human NaV1.3 channel = human NaV1.3 channel (Homo sapiens, UniProt Q9NY46); test: ANG-2 intracellular Na+ fluorescent assay in HEK293-hNaV1.3 cells; type: cell-based; settings: IA at 10 µM; BTX 3 µM; HEK293-hNaV1.3; read-out: Inhibition of BTX-induced [Na+]i elevation (ANG-2 signal)
hNaV1.2 channel = molecular target: T2, hNaV1.2 channel (Homo sapiens, UniProt Q99250); test: Automated patch-clamp, Na+ currents in HEK293-hNaV1.2 cells; type: cell-based; settings: 10 µM; for Effect on Na+ currents elicited by hNaV1.2: HEK293-hNaV1.2; for Change in V1/2 of activation and inactivation vs control: hNaV1.2
T2 construct: expressed in transfected cells
Protocol: as §1, §2

hNaV1.6 channel = molecular target: T3, hNaV1.6 channel (Homo sapiens, UniProt Q9UQD0); test: Automated patch-clamp, Na+ currents in HEK293-hNaV1.6 cells; type: cell-based; settings: 10 µM; for Effect on Na+ currents elicited by hNaV1.6: HEK293-hNaV1.6; for Change in V1/2 of activation and inactivation vs control: hNaV1.6
T3 construct: expressed in transfected cells
Protocol: as §1, §2

[2] = tested on: Na+ currents recorded in isolated cardiomyocytes; settings: cited from earlier work
[3] = 10 µM IA in the presence of 1 µM BTX

T1 sequence (Q9NY46 whole entry): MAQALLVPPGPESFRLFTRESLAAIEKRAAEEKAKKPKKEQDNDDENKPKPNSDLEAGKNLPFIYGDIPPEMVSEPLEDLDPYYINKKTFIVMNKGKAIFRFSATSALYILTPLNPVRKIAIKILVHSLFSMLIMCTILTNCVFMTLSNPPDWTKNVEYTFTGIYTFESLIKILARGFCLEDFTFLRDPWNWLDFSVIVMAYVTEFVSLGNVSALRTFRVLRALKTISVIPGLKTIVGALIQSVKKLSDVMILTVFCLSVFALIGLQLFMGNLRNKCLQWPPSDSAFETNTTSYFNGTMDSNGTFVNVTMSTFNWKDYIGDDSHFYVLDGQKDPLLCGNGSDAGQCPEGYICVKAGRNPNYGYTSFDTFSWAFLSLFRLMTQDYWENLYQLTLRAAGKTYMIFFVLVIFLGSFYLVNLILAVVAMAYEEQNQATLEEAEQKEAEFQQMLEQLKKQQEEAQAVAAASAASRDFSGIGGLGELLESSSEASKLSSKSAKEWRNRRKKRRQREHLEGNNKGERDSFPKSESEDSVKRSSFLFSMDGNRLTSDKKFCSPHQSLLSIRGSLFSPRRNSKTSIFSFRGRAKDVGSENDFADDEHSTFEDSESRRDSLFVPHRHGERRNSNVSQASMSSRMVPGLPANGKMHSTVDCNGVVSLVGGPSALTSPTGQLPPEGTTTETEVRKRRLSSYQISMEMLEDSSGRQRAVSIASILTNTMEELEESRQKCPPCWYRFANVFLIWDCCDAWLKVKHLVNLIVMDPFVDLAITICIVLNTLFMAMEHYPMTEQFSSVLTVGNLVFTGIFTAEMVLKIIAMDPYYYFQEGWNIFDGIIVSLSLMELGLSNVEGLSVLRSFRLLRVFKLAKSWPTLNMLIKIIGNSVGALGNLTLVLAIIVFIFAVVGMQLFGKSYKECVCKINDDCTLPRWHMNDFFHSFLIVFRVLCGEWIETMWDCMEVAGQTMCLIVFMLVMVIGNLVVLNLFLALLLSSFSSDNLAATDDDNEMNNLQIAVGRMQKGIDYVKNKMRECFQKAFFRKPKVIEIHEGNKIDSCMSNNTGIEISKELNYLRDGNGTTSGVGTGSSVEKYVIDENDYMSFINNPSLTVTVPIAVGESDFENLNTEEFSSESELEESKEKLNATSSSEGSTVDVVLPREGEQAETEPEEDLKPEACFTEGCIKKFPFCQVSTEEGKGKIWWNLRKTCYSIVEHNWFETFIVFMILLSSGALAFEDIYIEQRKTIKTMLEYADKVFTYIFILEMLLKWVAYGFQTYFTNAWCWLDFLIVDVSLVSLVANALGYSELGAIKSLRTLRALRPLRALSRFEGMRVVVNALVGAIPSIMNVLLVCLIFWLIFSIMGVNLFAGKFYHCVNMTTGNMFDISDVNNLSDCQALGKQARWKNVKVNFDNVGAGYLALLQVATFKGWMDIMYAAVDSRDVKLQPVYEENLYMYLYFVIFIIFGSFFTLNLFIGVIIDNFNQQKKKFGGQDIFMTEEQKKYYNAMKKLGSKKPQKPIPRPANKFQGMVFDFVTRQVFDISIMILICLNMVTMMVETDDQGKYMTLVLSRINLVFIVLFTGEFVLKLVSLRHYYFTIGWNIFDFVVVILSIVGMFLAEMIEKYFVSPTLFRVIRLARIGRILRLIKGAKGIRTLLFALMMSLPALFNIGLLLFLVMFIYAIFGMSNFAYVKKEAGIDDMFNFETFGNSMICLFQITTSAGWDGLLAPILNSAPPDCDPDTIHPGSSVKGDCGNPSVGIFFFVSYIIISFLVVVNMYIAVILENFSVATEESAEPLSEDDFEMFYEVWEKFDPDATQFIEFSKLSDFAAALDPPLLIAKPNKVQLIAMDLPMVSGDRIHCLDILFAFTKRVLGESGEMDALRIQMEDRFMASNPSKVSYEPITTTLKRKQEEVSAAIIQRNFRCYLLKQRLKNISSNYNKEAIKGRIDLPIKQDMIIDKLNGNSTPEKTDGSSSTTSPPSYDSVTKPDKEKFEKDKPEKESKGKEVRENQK
T3 sequence (Q9UQD0 whole entry): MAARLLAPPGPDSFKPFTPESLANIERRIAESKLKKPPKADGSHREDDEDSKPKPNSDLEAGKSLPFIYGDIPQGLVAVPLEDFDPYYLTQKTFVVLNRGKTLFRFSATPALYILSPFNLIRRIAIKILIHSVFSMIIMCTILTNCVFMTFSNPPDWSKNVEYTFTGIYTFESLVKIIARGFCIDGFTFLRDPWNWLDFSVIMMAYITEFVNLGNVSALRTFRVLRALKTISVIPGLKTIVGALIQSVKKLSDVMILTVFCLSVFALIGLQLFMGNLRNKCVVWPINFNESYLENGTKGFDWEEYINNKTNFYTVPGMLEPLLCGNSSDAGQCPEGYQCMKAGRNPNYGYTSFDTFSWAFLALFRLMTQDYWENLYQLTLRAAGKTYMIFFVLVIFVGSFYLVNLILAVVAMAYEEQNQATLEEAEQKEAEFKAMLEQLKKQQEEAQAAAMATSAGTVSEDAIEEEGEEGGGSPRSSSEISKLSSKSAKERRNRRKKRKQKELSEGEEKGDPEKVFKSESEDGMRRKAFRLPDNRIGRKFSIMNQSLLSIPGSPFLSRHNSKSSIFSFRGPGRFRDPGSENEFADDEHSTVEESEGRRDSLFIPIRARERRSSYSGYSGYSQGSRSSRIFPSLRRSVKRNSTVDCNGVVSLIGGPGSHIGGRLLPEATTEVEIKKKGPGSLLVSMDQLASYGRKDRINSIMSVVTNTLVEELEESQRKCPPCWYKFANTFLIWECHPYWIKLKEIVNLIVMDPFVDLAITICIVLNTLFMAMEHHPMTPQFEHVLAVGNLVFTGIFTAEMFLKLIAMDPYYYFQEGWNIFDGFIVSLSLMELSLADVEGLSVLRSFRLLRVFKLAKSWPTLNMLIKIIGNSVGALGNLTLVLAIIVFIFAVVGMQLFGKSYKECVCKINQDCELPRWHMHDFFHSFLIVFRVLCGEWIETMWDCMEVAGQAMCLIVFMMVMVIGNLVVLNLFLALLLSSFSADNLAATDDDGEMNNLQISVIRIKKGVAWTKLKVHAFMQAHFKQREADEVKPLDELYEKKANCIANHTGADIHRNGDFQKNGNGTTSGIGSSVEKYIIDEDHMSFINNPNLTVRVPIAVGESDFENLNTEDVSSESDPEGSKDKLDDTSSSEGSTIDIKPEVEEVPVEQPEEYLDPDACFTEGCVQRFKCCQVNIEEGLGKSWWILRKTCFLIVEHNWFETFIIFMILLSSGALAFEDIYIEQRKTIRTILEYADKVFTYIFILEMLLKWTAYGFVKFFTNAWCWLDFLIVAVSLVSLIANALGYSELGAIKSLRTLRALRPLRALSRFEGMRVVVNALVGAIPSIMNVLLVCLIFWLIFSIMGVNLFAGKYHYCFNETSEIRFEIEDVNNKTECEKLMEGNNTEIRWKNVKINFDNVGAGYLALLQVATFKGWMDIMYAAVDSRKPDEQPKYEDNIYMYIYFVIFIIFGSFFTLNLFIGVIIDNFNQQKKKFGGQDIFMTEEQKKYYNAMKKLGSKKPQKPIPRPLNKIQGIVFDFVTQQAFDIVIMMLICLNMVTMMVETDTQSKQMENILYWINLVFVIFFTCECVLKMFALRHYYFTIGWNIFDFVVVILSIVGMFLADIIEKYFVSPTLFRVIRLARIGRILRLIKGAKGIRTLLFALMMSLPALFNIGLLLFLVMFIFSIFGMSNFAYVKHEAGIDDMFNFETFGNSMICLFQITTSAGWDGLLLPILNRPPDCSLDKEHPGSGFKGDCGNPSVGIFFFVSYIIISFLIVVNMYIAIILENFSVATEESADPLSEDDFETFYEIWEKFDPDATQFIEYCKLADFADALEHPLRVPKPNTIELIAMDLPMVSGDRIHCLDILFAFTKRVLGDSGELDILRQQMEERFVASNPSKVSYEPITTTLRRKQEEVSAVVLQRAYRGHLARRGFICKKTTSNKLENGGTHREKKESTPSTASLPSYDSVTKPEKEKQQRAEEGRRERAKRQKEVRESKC
human NaV1.3 channel, sequence (Q9NY46 whole entry): as the sequence (Q9NY46 whole entry) above

Row | Compound | Maximum of Inhibition of BTX-evoked VSP signal [1] | IC50 [1] | Inhibitory Effects (%) on BTX-induced VSP signal (screening) [1] | inhibition at 10 µM (human NaV1.3 channel) | Effect on current densities of hNaV1.3 at −60 mV (hNaV1.3 channel; [3]) | Effect on slow-down of inactivation induced by BTX (AUC) (hNaV1.3 channel; BTX 1 µM) | Effect on Na+ currents elicited by hNaV1.3 (hNaV1.3 channel) | Change in V1/2 of activation and inactivation vs control (hNaV1.3 channel) | Effect on Na+ currents elicited by hNaV1.2 (hNaV1.2 channel) | Change in V1/2 of activation and inactivation vs control (hNaV1.2 channel) | Effect on Na+ currents elicited by hNaV1.6 (hNaV1.6 channel) | Change in V1/2 of activation and inactivation vs control (hNaV1.6 channel) | other results
1 | Cc1c[nH]c(C)c1C(=O)OC(C)C1=CCC23OCCN(C)CC12CC(O)C12OC4(O)CCC1(C)C(CC=C32)C4 (stereo not drawn) [BTX, batrachotoxin, reference compound] | – | – | – | – | – | – | – | – | – | – | – | – | EC50 of BTX-induced VSP signal ratio ([1]; BTX 0.01 to 3 µM, Na+ raised to 80 mM): 0.27 ± 0.06 µM; Increase of the AUC of current traces (inactivation rate of hNaV1.3) (hNaV1.3 channel; BTX 1 µM, data not shown): 55 fold
2 | COc1cccc2c1C(=O)c1nccc3cc4c(c-2c13)OCO4 [IA14, oxostephanine] | 95.78 ± 6.99% | 6.11 ± 0.09 µM | 84.4% | 43 ± 12% | significantly decreased | significantly decreased | no effects | ns | no effects | ns | no effects | ns | IC50 ([1]; listed as Oxostephanine): 5 to 6 µM; Inhibitory Effects (%) on BTX-induced VSP signal (screening) ([1]; listed as IA24): 80.5%
3 | COc1ccc2cc1-c1cc(ccc1O)C[C@H]1c3cc4c(cc3CCN1C)Oc1c(OC)cc3c(c1O4)[C@H](C2)N(C)CC3 [IA31, tiliacorinine] | – | – | 92.8% | – | – | – | – | – | – | – | – | – | –
4 | COc1ccc2c(c1OC)C(O)C1c3c(cc4c(c3-2)OCO4)CCN1C (stereo not drawn) [IA36, sukhodianine] | – | – | 92.2% | – | – | – | – | – | – | – | – | – | –
5 | O=C1c2ccccc2-c2c3c(cc4ccnc1c24)OCO3 [IA39, liriodenine] | 83.78 ± 6.59% | 5 ± 0.1 µM | 99.1% | 50 ± 10% | significantly decreased | significantly decreased | no effects | ns | no effects | ns | no effects | ns | IC50 ([1]; listed as liriodenine): 5 to 6 µM; IC50, suppression of Na+ currents in isolated cardiomyocytes [2]: micromolar range; Effect on V1/2 activation of hNaV1.3 (hNaV1.3 channel; [3]): positively shifted
